Assay results from PubChem BioAssay AID1259407 (Chemical Carcinogenesis Research Information System (CCRIS), 2018).
Activity calls are given as the source filed them. The rule behind the calls is not given here.

System: CCRIS mutagenicity, Ames/micronucleus/aberration tests
Assay: CCRIS mutagenicity studies
[1] = Test System: AMES SALMONELLA TYPHIMURIUM, Strain/Indicator: TA98, Metabolic Activation: NONE, Method: STANDARD PLATE
[2] = Test System: AMES SALMONELLA TYPHIMURIUM, Strain/Indicator: TA100, Metabolic Activation: NONE, Method: STANDARD PLATE
[3] = Test System: AMES SALMONELLA TYPHIMURIUM, Strain/Indicator: TA98, Metabolic Activation: NONE, Method: PREINCUBATION
[4] = Test System: AMES SALMONELLA TYPHIMURIUM, Strain/Indicator: TA100, Metabolic Activation: NONE, Method: PREINCUBATION
[5] = Test System: AMES SALMONELLA TYPHIMURIUM, Strain/Indicator: TA1535, Metabolic Activation: NONE, Method: PREINCUBATION

COC1=CC(=O)c2c(ncc3c4c([nH]c23)CCCC4)C1=O
mutagenic call (Test System: AMES SALMONELLA TYPHIMURIUM, Strain/Indicator: TA97A, Metabolic Activation: NONE, Method: STANDARD PLATE): active; positive | mutagenic call (Test System: AMES SALMONELLA TYPHIMURIUM, Strain/Indicator: TA97A, Metabolic Activation: RAT LIVER S-9, AROCLOR 1254, Method: STANDARD PLATE): active; positive | mutagenic call [1]: active; positive | mutagenic call (Test System: AMES SALMONELLA TYPHIMURIUM, Strain/Indicator: TA98, Metabolic Activation: RAT LIVER S-9, AROCLOR 1254, Method: STANDARD PLATE): active; positive | mutagenic call [2]: active; positive | mutagenic call (Test System: AMES SALMONELLA TYPHIMURIUM, Strain/Indicator: TA100, Metabolic Activation: RAT LIVER S-9, AROCLOR 1254, Method: STANDARD PLATE): active; positive | mutagenic call (Test System: AMES SALMONELLA TYPHIMURIUM, Strain/Indicator: TA102, Metabolic Activation: NONE, Method: STANDARD PLATE): inactive; negative | mutagenic call (Test System: AMES SALMONELLA TYPHIMURIUM, Strain/Indicator: TA102, Metabolic Activation: RAT LIVER S-9, AROCLOR 1254, Method: STANDARD PLATE): inactive; negative

COc1ccc(C(=O)ON(OCc2ccccc2)C(=O)c2ccccc2)cc1
mutagenic call [2]: active; positive | mutagenic call (Test System: AMES SALMONELLA TYPHIMURIUM, Strain/Indicator: TA100, Metabolic Activation: RAT, S-9, AROCLOR, Method: STANDARD PLATE): active; positive

O=S(=O)(O)c1cc(S(=O)(=O)O)c2cc(O)ccc2c1
mutagenic call [3]: inactive; negative | mutagenic call (Test System: AMES SALMONELLA TYPHIMURIUM, Strain/Indicator: TA98, Metabolic Activation: RAT LIVER S-9, PHENOBARBITAL AND BETA-NAPHTHOFLAVONE, Method: PREINCUBATION): inactive; negative | mutagenic call (Test System: AMES SALMONELLA TYPHIMURIUM, Strain/Indicator: TA98, Metabolic Activation: RAT, LIVER, S-9, PHENOBARBITAL, Method: PREINCUBATION): inactive; negative | mutagenic call [4]: inactive; negative | mutagenic call (Test System: AMES SALMONELLA TYPHIMURIUM, Strain/Indicator: TA100, Metabolic Activation: RAT LIVER S-9, PHENOBARBITAL AND BETA-NAPHTHOFLAVONE, Method: PREINCUBATION): inactive; negative | mutagenic call (Test System: AMES SALMONELLA TYPHIMURIUM, Strain/Indicator: TA100, Metabolic Activation: RAT, LIVER, S-9, PHENOBARBITAL, Method: PREINCUBATION): inactive; negative | mutagenic call [5]: inactive; negative | mutagenic call (Test System: AMES SALMONELLA TYPHIMURIUM, Strain/Indicator: TA1535, Metabolic Activation: RAT LIVER S-9, PHENOBARBITAL AND BETA-NAPHTHOFLAVONE, Method: PREINCUBATION): inactive; negative | mutagenic call (Test System: AMES SALMONELLA TYPHIMURIUM, Strain/Indicator: TA1537, Metabolic Activation: NONE, Method: PREINCUBATION): inactive; negative | mutagenic call (Test System: AMES SALMONELLA TYPHIMURIUM, Strain/Indicator: TA1537, Metabolic Activation: RAT LIVER S-9, PHENOBARBITAL AND BETA-NAPHTHOFLAVONE, Method: PREINCUBATION): inactive; negative | mutagenic call (Test System: AMES SALMONELLA TYPHIMURIUM, Strain/Indicator: TA1538, Metabolic Activation: NONE, Method: PREINCUBATION): inactive; negative | mutagenic call (Test System: AMES SALMONELLA TYPHIMURIUM, Strain/Indicator: TA1538, Metabolic Activation: RAT LIVER S-9, PHENOBARBITAL AND BETA-NAPHTHOFLAVONE, Method: PREINCUBATION): inactive; negative | mutagenic call (Test System: E.COLI, Strain/Indicator: WP2UVRA, Metabolic Activation: NONE, Method: PREINCUBATION): inactive; negative | mutagenic call (Test System: E.COLI, Strain/Indicator: WP2UVRA, Metabolic Activation: RAT LIVER S-9, PHENOBARBITAL AND BETA-NAPHTHOFLAVONE, Method: PREINCUBATION): inactive; negative

O=C(Nc1cccc(Cl)c1)c1csc([N+](=O)[O-])c1
mutagenic call [1]: active; positive | mutagenic call [2]: active; positive

Cc1cccc(N)c1C
mutagenic call (Test System: AMES SALMONELLA TYPHIMURIUM, Strain/Indicator: TA97, Metabolic Activation: HAMSTER, LIVER, S-9, AROCLOR 1254 (10%), Method: PREINCUBATION): inactive; negative | mutagenic call (Test System: AMES SALMONELLA TYPHIMURIUM, Strain/Indicator: TA97, Metabolic Activation: NONE, Method: PREINCUBATION): inactive; negative | mutagenic call (Test System: AMES SALMONELLA TYPHIMURIUM, Strain/Indicator: TA97, Metabolic Activation: RAT, LIVER, S-9, AROCLOR 1254 (10%), Method: PREINCUBATION): inactive; negative | mutagenic call (Test System: AMES SALMONELLA TYPHIMURIUM, Strain/Indicator: TA98, Metabolic Activation: HAMSTER, LIVER, S-9, AROCLOR 1254 (10%), Method: PREINCUBATION): active; positive | mutagenic call [3]: inactive; negative | mutagenic call (Test System: AMES SALMONELLA TYPHIMURIUM, Strain/Indicator: TA98, Metabolic Activation: RAT, LIVER, S-9, AROCLOR 1254 (10%), Method: PREINCUBATION): inactive; negative | mutagenic call (Test System: AMES SALMONELLA TYPHIMURIUM, Strain/Indicator: TA100, Metabolic Activation: HAMSTER, LIVER, S-9, AROCLOR 1254 (10%), Method: PREINCUBATION): active; positive | mutagenic call [4]: inactive; negative | mutagenic call (Test System: AMES SALMONELLA TYPHIMURIUM, Strain/Indicator: TA100, Metabolic Activation: RAT, LIVER, S-9, AROCLOR 1254 (10%), Method: PREINCUBATION): inactive; negative | mutagenic call (Test System: AMES SALMONELLA TYPHIMURIUM, Strain/Indicator: TA1535, Metabolic Activation: HAMSTER, LIVER, S-9, AROCLOR 1254 (10%), Method: PREINCUBATION): inactive; negative | mutagenic call [5]: inactive; negative | mutagenic call (Test System: AMES SALMONELLA TYPHIMURIUM, Strain/Indicator: TA1535, Metabolic Activation: RAT, LIVER, S-9, AROCLOR 1254 (10%), Method: PREINCUBATION): inactive; negative

CCN(O)CC
mutagenic call (Test System: UDS HUMAN LYMPHOCYTES, Strain/Indicator: THY INCORP (NON-S-PHASE), Metabolic Activation: NONE, Method: LIQUID SCINTILLATION COUNTING): active; positive

CN(C)S(=O)(=O)CCNC(=O)N(CCCl)N=O
mutagenic call [2]: active; positive | mutagenic call (Test System: AMES SALMONELLA TYPHIMURIUM, Strain/Indicator: TA100, Metabolic Activation: RAT, LIVER, S-9, AROCLOR 1254, Method: STANDARD PLATE): active; positive

c1ccc(-c2ccc(OCC3CO3)cc2)cc1 (stereo not given)
mutagenic call [2]: active; positive | mutagenic call (Test System: AMES SALMONELLA TYPHIMURIUM, Strain/Indicator: TA1535, Metabolic Activation: NONE, Method: STANDARD PLATE): active; positive

COc1ccc(O)c2c(=O)c3c(OC)cc4c(c3oc12)[C@@H]1C=CO[C@@H]1O4
mutagenic call (Test System: AMES SALMONELLA TYPHIMURIUM, Strain/Indicator: TA98, Metabolic Activation: RAT, LIVER, S-9, PHENOBARBITAL, Method: STANDARD PLATE): inactive; negative | mutagenic call (Test System: AMES SALMONELLA TYPHIMURIUM, Strain/Indicator: TA100, Metabolic Activation: RAT, LIVER, S-9, PHENOBARBITAL, Method: STANDARD PLATE): active; positive
